Test results: patent US5652222A, “Selective inhibition of leukemic cell proliferation by bcr-abl antisense oligonucleotides” (Temple University-of The Commonwealth System of Higher …, priority 1993, dated 1997)

What was measured:
[1] = system: 1:1 mix of normal MNC and CML blast crisis cells; test: Morphology (Giemsa staining) of cells from residual colonies; format: cell-based, human
Description: Normal bone marrow mononuclear cells (MNC) were obtained by aspiration from consenting volunteers and enriched for hematopoietic progenitors as previously reported by numerous investigators (Zamecnick et al., Proc. Natl. Acad. Sci. U.S.A. 83, 4143-4147 (1986); Caracciolo et al., J. Clin. Invest. 85, 55-61 (1990)). In brief, marrow cells were subjected to Ficoll-Hypaque density gradient sedimentation and then depleted of adherent monocyte-macrophage and T-lymphocytes by adherence to plastic Petri dishes and rosetting with neuraminidase-treated sheep red blood cells, respectively. Philadelphia chromosome-positive blast cells were isolated by Ficoll-Hypaque density gradient sedimentation from a CML patient in blast crisis (L-6 type junction). […] The residual non-blast cells had the morphological appearance of small lymphocytes. 25,000 MNC and 25,000 CML blast cells were combined and incubated with bcr-abl breakpoint-Specific antisense oligomer (SEQ ID NO:3) (40 μg/ml at h 0; 20 μg/ml 18 hours later) or with a 4 nucleotide mismatch bcr-abl antisense oligomer (SEQ ID NO:2) (40 μg/ml at 0 h; 20 μg/ml 18 hours later) or left untreated. […] At the end of the incubation period colonies were counted. […]

bcr-abl transcripts = test: bcr-abl transcript in residual colonies (RT-PCR); format: cell-based, human; conditions: colonies arising from mixed cell populations of Example 3
Procedure: (§1) To provide unambiguous evidence of the elimination of Philadelphia chromosome blast cells, residual cells from Example 3 were evaluated for the expression of bcr-abl transcripts, since the levels of this transcript should reflect the number of surviving leukemia cells. For this purpose, total RNA was isolated from a pool of colonies from Example 3, and the levels of bcr-abl transcripts were evaluated. Levels of β2 -microglobulin transcript were also determined as a control. The β2 -microglobulin gene is expressed independent of cell cycle.
(§2) Accordingly, bcr-abl and β2 -microglobulin transcripts were reverse-transcribed and amplified in the presence of specific primers and Taq polymerase as described by Rappollee, Science 241, 708-712 (1988). The amplification products were separated on a 2% agarose gel and transferred to a nitrocellulose filter, which was hybridized with a synthetic 40-nucleotide c-abl fragment and a 40-nucleotide β2 -microglobulin fragment and labeled with [γ-^32 P]-ATP and polynucleotide kinase. The c-abl probe recognizes the amplified 257-nucleotide sequence of FIG. 1, which contains the L-6 type bcr-abl junction. The β2 -microglobulin probe recognizes the 195-nucleotide sequence contained within 5' and 3' β2 -microglobulin primers (Id.; Suggs et al., Proc. Natl. Acad. Sci. U.S.A. 78, 6613 (1981)).

[2] = system: cells of CML patients in blast crisis, K-28 (b3a2) type junction; test: Colony formation of CML blast crisis patient cells expressing the b3a2 (K-28) junction; format: cell-based, human; conditions: antisense to L-6 junction on K-28 cells, compared with untreated cells
Description: To identify CML blast crisis patients carrying the second common type junction, in which bcr exon 3 is juxtaposed to c-abl exon 2, total RNA derived from cells of CML patients in blast crisis was reverse-transcribedwith synthetic primers. The 3' primer (SEQ ID NO:10) was complementary to 22 nucleotides of c-abl. exon 2. The 5' primer was the 22-mer GTCATCGTCCACTCAGCCACTG (SEQ ID NO:12) complementary to 22 nucleotides of bcr exon 3. The RNA was amplified by polymerase chain reaction according to Example 1. The amplification products were then hybridized with the synthetic 18-mer oligonucleotide GAAGGGCTTT TGAACTCT (SEQ ID NO:6), which is complementary to the b3a2 junction. After cloning of breakpoints in two patients, sequence analysis of several clones identified the b3a2 junction as precisely corresponding to the K-28 breakpoint shown in FIG. 3. (SEQ ID NO:4).
Utilizing the culture condition and oligomer treatment conditions of Example 1, cells were exposed to either no oligomer (FIG. 4A), the 18-nucleotide synthetic oligomer GAAGTGCTGT TGAACTCT (SEQ ID NO:5) partially complementary to the b3a2 junction, containing 9 nucleotides corresponding to bcr and 9 nucleotides corresponding to c-abl but with two mismatches (FIG. 4B); or the 18-nucleotide synthetic oligomer GAAGGGCTTT TGAACTCT (SEQ ID NO:6) completely complementary to the same bcr-abl junction (FIG. 4C).

[3] = system: Philadelphia chromosome-positive blast cells of CML patients in blast crisis, L-6 (b2a2) type junction; test: Colony formation of CML blast crisis patient cells expressing the b2a2 (L-6) junction; format: cell-based, human
[4] = system: β2-microglobulin transcript; test: β2-microglobulin transcript in residual colonies (RT-PCR control); format: cell-based, human; conditions: antisense-treated colonies
Procedure: as §1, §2

BV173 cells = test: Survival of leukemic SCID mice; format: in vivo, SCID mice (human leukemic cells); conditions: treatment starting from days +7 or +21 (FIG. 12)
Description: To determine the lethal dose of BV173 cells in the SCID mice, we injected from 10^3 to 10^7 cells into the tail vein and monitored survival at various times postinjection. Mice injected with 10^7, 10^6, 10^5, or 10^4 BV173 cells died 8-10, 9-12, 13-15, or 14-22 weeks later, respectively, due to leukemia cell growth as confirmed on necroscopy. Spleen weight was about 40 times higher than that in noninjected SCID mice while liver and kidneys had numerous metastases and were enlarged 10-fold as compared to noninjected mice. Mice injected with 10^3 BV173 cells were still alive 35 weeks post implantation, and leukemia was never detected. From this study, 10^6 cells was taken as a lethal dose.
To determine whether synthetic phosphorothioate oligodeoxynucleotides targeted against the bcr-abl junction of […] cells would modify the disease process in SCID mice. SCID mice were injected with 10^6 BV173 cells. The mice then received 1 mg of sense (ATCAATAAGG AAGCCCTTCAGCG, SEQ ID NO:34) or antisense ([…] ATTGAT, SEQ ID NO:29) b2/a2 bcr-abl phosphorothioate oligodeoxynucleotides (pyrogen leven <1 Eu/mg; 0.2 ml in Iscove modified Dulbecco medium in 5-10 seconds) intravenously for each of 9 consecutive days, beginning either 7 or 21 days after introducing 10^6 BV173 cells. Control mice received the diluent (iscove's modified Dulbecco medium) only. These time points approximate distinct disease stages in humans.

Row | Substance | morphology of cells isolated from residual colonies [1] | bcr-abl transcript in RNA from colonies (bcr-abl transcripts) | inhibition of colony formation [2] | reduction of colony formation [2] | % Inhibition ([3]; Table 1, patient 1, number of colonies vs untreated) [%] | Number of Colonies, Antisense-treated ([3]; Table 1, patient 3, 40 μg/ml at start, 20 μg/ml 18 h later, untreated 480 ± 88) [colonies] | expression of β2-microglobulin [4] | mortality / survival outcome (BV173 cells) | survival after i.v. injection of 10^6 BV173 cells (BV173 cells)
1 | SEQ ID NO:3: synthetic 18-mer GAAGGGCTTC TTCCTTAT specific for the 18-nucleotide target sequence of the L-6 bcr-abl junction (antisense GAAGGGCTTCTTCCTTAT; chemistry not given here) | largely consisted of differentiating elements | No bcr-abl transcript was detected | 2.5-5% | No significant reduction of colony formation | 75 | 50 ± 12 | clearly detectable | – | –
2 | SEQ ID NO:34: phosphorothioate sense sequence ATCAATAAGGAAGCCCTTCAGCG (23-mer b2a2 sense) (sense ATCAATAAGGAAGCCCTTCAGCG; all phosphorothioate, sugars by position and methylation of C not given here) | – | – | – | – | – | – | – | died with diffuse leukemia | 10-13 weeks
